The record followed here is patent publication US7008636B2, “2,3,5-substituted biphenyls useful in the treatment of insulin resistance and hyperglycemia” (Wyeth, priority 1998, dated 2006).

Structures are written as SMILES.

Data set [1] addresses T1, recombinant, human protein tyrosine phosphatase (PTP) 1B (hPTP1B) (Homo sapiens, UniProt P18031).
T1 construct: made in house
T1 sequence (P18031 1-435): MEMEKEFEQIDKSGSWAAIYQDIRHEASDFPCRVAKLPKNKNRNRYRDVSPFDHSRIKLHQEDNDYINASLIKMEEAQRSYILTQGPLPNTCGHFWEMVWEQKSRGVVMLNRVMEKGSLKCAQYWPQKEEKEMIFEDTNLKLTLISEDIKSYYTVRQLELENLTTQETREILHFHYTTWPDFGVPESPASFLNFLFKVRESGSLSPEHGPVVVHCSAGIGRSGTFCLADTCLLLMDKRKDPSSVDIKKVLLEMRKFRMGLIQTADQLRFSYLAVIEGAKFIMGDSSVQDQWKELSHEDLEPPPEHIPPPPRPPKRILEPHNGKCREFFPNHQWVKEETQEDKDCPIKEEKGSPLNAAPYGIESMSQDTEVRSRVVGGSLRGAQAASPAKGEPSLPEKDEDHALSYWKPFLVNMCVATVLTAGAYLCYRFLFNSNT
As to the kind of experiment: Inhibition of tri-phosphorylated insulin receptor dodecaphosphopeptide dephosphorylation by hPTP1B. Type of data set: biochemical. As to conditions: 50 μM IR triphosphopeptide substrate, 5 min preincubation and 5 min reaction at 37° C., malachite green-ammonium molybdate phosphate detection.

One may read the IC50 as the midpoint of a concentration-inhibition curve. The term melting point denotes the temperature, or range, at which the solid turns liquid.

As for `CCCCCCCCOc1cc(-c2cccc(Cl)c2)c(OCC(=O)O)c(-c2cccc(Cl)c2)c1` [Example 46, (3,3″-Dichloro-5′-octyloxy-[1,1′;3′,1″]terphenyl-2′-yloxy)acetic acid], the melting point was 113 to 115.5 °C. Also, in data set [1], the IC50 is 121 nM.
The like results for `COc1ccc2c(c1)cc(C)n2CCCCCCCCNC(=O)c1cc(-c2cccc(Cl)c2)c(OCC(=O)O)c(-c2cccc(Cl)c2)c1` [Example 99, {3,3″-Dichloro-5′-[8-(5-methoxy-2-methyl-indol-1-yl)-octylcarbamoyl]-[1,1′;3′1″]-terphenyl-2′-yloxy}acetic acid] were, in that order, > 75 °C (dec.) and 267 nM.
In the case of `CCCCCCCCOc1cc(-c2cccc(NC(C)=O)c2)c(OCC(=O)O)c(-c2cccc(NC(C)=O)c2)c1` [Example 47, (3,3″-Bis-acetylamino-5′-octyloxy-[1,1′;3′,1″]terphenyl-2′-yloxy)acetic acid], the melting point was > 100 °C (dec.). Besides, the IC50 in data set [1] stood at 300 nM.
As for `O=C(O)COc1c(-c2cccc(Cl)c2)cc(C(=O)NCCCCCCCCn2ccnc2)cc1-c1cccc(Cl)c1` [Example 92, [3,3″-Dichloro-5′-(8-imidazol-1-yl-octylcarbamoyl)-[1,1′;3′1″]terphenyl-2′-yloxy]acetic acid], the melting point is > 109 °C (dec.). Further, the IC50 in data set [1] came to 471 nM.
Take `COc1ccc(-c2cc(C(=O)NCCCCCCCCc3ccccc3)cc(-c3ccc(OC)cc3)c2OCC(=O)[O-])cc1.[Na+]` [Example 23, [4,4″-Dimethoxy-5′-(8-phenyl-octylcarbamoyl)-[1,1′;3′,1″]terphenyl-2′yloxy]acetic acid sodium salt]: the melting point was more than 95 °C. For the same compound, in data set [1], the IC50 came out at 365 nM.
`CCCCCCCCOc1cc(-c2cccc(C(F)(F)F)c2)c(OCC(=O)O)c(-c2cccc(C(F)(F)F)c2)c1` [Example 48, (5′-Octyloxy-3,3″-bis-trifluoromethyl-[1,1′;3′,1″]terphenyl-2′-yloxy)acetic acid] had a melting point of 75 to 77 °C. In data set [1], the IC50 was found to be 145 nM.
Compound `O=C(O)COCCOc1c(-c2cccc(C(F)(F)F)c2)cc(C(=O)NCCCCCCc2ccccc2)cc1-c1cccc(C(F)(F)F)c1` [Example 18, {2-[5′-(6-Phenyl-hexylcarbamoyl)-3,3″-bis-trifluoromethyl-[1,1′;3′,1″]terphenyl-2′-yloxy]-ethoxy}acetic acid] yielded a melting point of 74.7 to 75.9 °C. For the same compound, the IC50 in data set [1] is 710 nM.
`O=C(O)COc1c(-c2cccc(C(F)(F)F)c2)cc(C(=O)NCCCCCCOCc2ccc(-c3ccccc3)cc2)cc1-c1cccc(C(F)(F)F)c1` [Example 20, {5′-[6-(Biphenyl-4-ylmethoxy)-hexylcarbamoyl]-3,3″-bis-trifluoromethyl-[1,1′;3′,1″]terphenyl-2′-yloxy}-acetic acid] yielded a melting point of 133.2 to 133.9 °C. The half-inhibitory concentration (IC50) in data set [1] was 379 nM.
As for `COc1ccc(-c2cc(C(=O)N(C)CCCCCCCCc3ccccc3)cc(-c3cccc(Cl)c3)c2OCC(=O)O)cc1` [Example 16, {3″-Chloro-4-methoxy-5′-[methyl-(8-phenyl-octyl)-carbamoyl]-[1,1′;3′, 1″]terphenyl-2′-yloxy}-acetic acid], the melting point is 66.8 to 67.5 °C. Besides, the IC50 in data set [1] was found to be 343 nM.
The like results for `O=C(O)COc1c(-c2cccc(Cl)c2)cc(C(=O)NCCCCCCc2ccccc2)cc1-c1cccc(Cl)c1` [Example 80, [3,3″-Dichloro-5′-(6-phenyl-hexylcarbamoyl)-[1,1′;3′,1″]terphenyl-2′-yloxy]acetic acid] were, in that order, 178 to 181 °C and 600 nM.
Regarding `CCCCCCCCOc1cc(-c2cccc([N+](=O)[O-])c2)c(OCC(=O)O)c(-c2cccc([N+](=O)[O-])c2)c1` [Example 49, (3,3″-Dinitro-5′-octyloxy-[1,1′;3′,1″]terphenyl-2′-yloxy)acetic acid], the melting point was in the range of 129 to 132 °C. The IC50 in data set [1] was 400 nM.
